Laboratory results: patent US20260077018A1, “TREATMENT OF MILD TRAUMATIC BRAIN INJURY” (OXEIA BIOPHARMACEUTICALS, INC., priority 2022, published 2026)
No end group written: not given here. *: point of attachment. Octanoyl = CCCCCCCC(=O)*

System: persistently symptomatic concussion patients
Experiment: Phase 2 study of OXE-103 in persistently symptomatic concussion: PCSS symptom scoring
Type: in vivo, human
Details: for 30% Responders - PCSS: Number of Responders / 30% Responders - PCSS: Responder % / 20% Responders - PCSS: Number of Responders / 20% Responders - PCSS: Responder %: Treated, 13 subjects; for PCSS symptom balance_problems / PCSS symptom difficulty_concentrating / PCSS symptom difficulty_remembering / PCSS symptom dizziness / PCSS symptom drowsiness / PCSS symptom fatigue / PCSS symptom feeling_in_a_fog / PCSS symptom feeling_more_emotional / PCSS symptom feeling_slowed_down / PCSS symptom headache / PCSS symptom irritability / PCSS symptom nausea / PCSS symptom neck_pain / PCSS symptom nervous_anxious / PCSS symptom numbness_or_tingling / PCSS symptom sadness / PCSS symptom sensitivity_to_light / PCSS symptom sensitivity_to_noise / PCSS symptom sleeping_less_than_usual / PCSS symptom sleeping_more_than_usual / PCSS symptom trouble_falling_asleep / PCSS symptom visual_problems / PCSS symptom vomiting: aggregated
From the text: Describe the change in symptom burden in sub-acute concussion for the two groups. A maximum of 50 subjects are enrolled, but recruiting stops if each arm has 20 participants, diagnosed with persistent concussion symptoms 28 days post injury who complete the study. Patients are randomized 1:1 to placebo versus OXE-103. The Post-Concussion Symptom Score questionnaire (PCSS) is used as an overall measure of symptom burden. The number of symptoms and severity at each time point are also measures of interest. In addition, subjects are asked to identify and rank the 4 most bothersome symptoms. Without being bound by theory, it is hypothesized that changes in these most bothersome symptoms have a higher correlation to improvement in quality of life. A visual comparison of change in the two groups is made. A change of 20% is considered to be clinically meaningful. This primary aim describes the change in symptoms between day 1 and day 14.
Described herein is a randomized, double-blind, placebo-controlled design where 40 subjects will be randomized to either a placebo cohort or a treatment with OXE-103 cohort. We randomize using the RedCap database. The database is set up to share randomization allocation only with the investigational pharmacy. All subjects are consented and begin the screening period within 28 days post-injury. There is a 7-day screening period prior to randomization and commencement of study treatment to allow for assessment of stability of symptom burden. This screening period must start no later than 28 days post-injury. Starting with Day 1 (end of screening period), the treatment cohort receives OXE-103 40ug/kg SC twice daily by self-injection and the placebo group receives a placebo injection SC twice daily. Study drug and placebo are maintained and dispensed by Investigational Pharmacy. Subjects receive an 8-day supply of syringes pre-loaded with OXE-103 or placebo. Each cohort receives the 2nd set of syringes with OXE-103 or placebo at the day 7 visit. No therapies other than OXE-103 are administered during the 14-day treatment period to either cohort. After completion of 14 days of either placebo or OXE-103 treatment, starting with the Day 14 visit, other medications and therapies can be initiated for either cohort as needed.
Symptom reduction (AIM 1): Our primary goal is to describe the change in number of symptoms and/or severity in sub-acute concussion with treatment with OXE-103 using the PCSS at days 1 and 15. We will also collect data at days 21 and 44 to potentially describe long term changes and potential lasting effect (AIM 4).
Subjects complete the PCSS at the following timepoints[17]: upon signing consent (score must 20) (day −7), mid-way through the screening period (day −3), prior to assignment of a treatment cohort (score must 20) (day 1), as well as days 4, 8, 11, 15, 21 and 44. Subjects are instructed to record their symptoms at the same time of day for each assessment timepoint. There can be a two-hour window either way. (e.g. 12 PM+/−2 hrs.) The PCSS is recorded via a RedCap survey. The PCSS is a self-reported assessment of 22 symptoms using a Likert-type scale ranging from 0-6, with 0 indicating no difficulty with the outlined symptom and ratings of 1-6 representing mild-to-severe difficulty with the symptom. The reliability and validity of the PCSS are well documented We also ask subjects to rank their 4 most burdensome symptoms (4MBS) at Day 1 and we analyze these separately. As stated in the Specific Aims the purpose of this study is to collect data that would further refine clinical endpoints that could be used for larger Phase 2 studies and possibly lead to the establishment of pivotal endpoints for Phase 3 registration trials. The 22 symptom PCSS assessment is designed to cover the full spectrum of concussion related symptoms across cognitive, emotional and somatic domains. In that regard the PCSS is particularly useful for diagnosis and monitoring recovery of patients post injury. […]

ghrelin (GSS(Octanoyl)FLSPEHQRVQQRKESKKPPAKLQPR; UniProt Q9UBU3 24-51, looked up) [OXE-103, naturally occurring peptide comprising 28 amino acids that include an N-octanoyl group at the 3-position of serine]
30% Responders - PCSS: Number of Responders (Day 11): 7
30% Responders - PCSS: Responder % (Day 11): 54%
PCSS symptom balance_problems (Day 15, OXE-103 Treated): 22
PCSS symptom difficulty_concentrating (Day 15, OXE-103 Treated): 30
PCSS symptom difficulty_remembering (Day 15, OXE-103 Treated): 26
PCSS symptom dizziness (Day 15, OXE-103 Treated): 21
PCSS symptom drowsiness (Day 15, OXE-103 Treated): 25
PCSS symptom fatigue (Day 15, OXE-103 Treated): 30
PCSS symptom feeling_in_a_fog (Day 15, OXE-103 Treated): 20
PCSS symptom feeling_more_emotional (Day 15, OXE-103 Treated): 22
PCSS symptom feeling_slowed_down (Day 15, OXE-103 Treated): 23
PCSS symptom headache (Day 15, OXE-103 Treated): 25
PCSS symptom irritability (Day 15, OXE-103 Treated): 25
PCSS symptom nausea (Day 15, OXE-103 Treated): 6
PCSS symptom neck_pain (Day 15, OXE-103 Treated): 20
PCSS symptom nervous_anxious (Day 15, OXE-103 Treated): 23
PCSS symptom numbness_or_tingling (Day 15, OXE-103 Treated): 5
PCSS symptom sadness (Day 15, OXE-103 Treated): 21
PCSS symptom sensitivity_to_light (Day 15, OXE-103 Treated): 18
PCSS symptom sensitivity_to_noise (Day 15, OXE-103 Treated): 16
PCSS symptom sleeping_less_than_usual (Day 15, OXE-103 Treated): 22
PCSS symptom sleeping_more_than_usual (Day 15, OXE-103 Treated): 15
PCSS symptom trouble_falling_asleep (Day 15, OXE-103 Treated): 25
PCSS symptom visual_problems (Day 15, OXE-103 Treated): 17
PCSS symptom vomiting (Day 15, OXE-103 Treated): 1
20% Responders - PCSS: Number of Responders (Day 15): 9
20% Responders - PCSS: Responder % (Day 15): 69%
30% Responders - PCSS: Number of Responders (Day 15): 7
30% Responders - PCSS: Responder % (Day 15): 54%
PCSS symptom balance_problems (Day 21, OXE-103 Treated): 23
PCSS symptom difficulty_concentrating (Day 21, OXE-103 Treated): 24
PCSS symptom difficulty_remembering (Day 21, OXE-103 Treated): 26
PCSS symptom dizziness (Day 21, OXE-103 Treated): 23
PCSS symptom drowsiness (Day 21, OXE-103 Treated): 26
PCSS symptom fatigue (Day 21, OXE-103 Treated): 28
PCSS symptom feeling_in_a_fog (Day 21, OXE-103 Treated): 24
PCSS symptom feeling_more_emotional (Day 21, OXE-103 Treated): 19
PCSS symptom feeling_slowed_down (Day 21, OXE-103 Treated): 26
PCSS symptom headache (Day 21, OXE-103 Treated): 23
PCSS symptom irritability (Day 21, OXE-103 Treated): 21
PCSS symptom nausea (Day 21, OXE-103 Treated): 12
PCSS symptom neck_pain (Day 21, OXE-103 Treated): 21
PCSS symptom nervous_anxious (Day 21, OXE-103 Treated): 16
PCSS symptom numbness_or_tingling (Day 21, OXE-103 Treated): 6
PCSS symptom sadness (Day 21, OXE-103 Treated): 14
PCSS symptom sensitivity_to_light (Day 21, OXE-103 Treated): 21
PCSS symptom sensitivity_to_noise (Day 21, OXE-103 Treated): 18
PCSS symptom sleeping_less_than_usual (Day 21, OXE-103 Treated): 19
PCSS symptom sleeping_more_than_usual (Day 21, OXE-103 Treated): 15
PCSS symptom trouble_falling_asleep (Day 21, OXE-103 Treated): 24
PCSS symptom visual_problems (Day 21, OXE-103 Treated): 19
PCSS symptom vomiting (Day 21, OXE-103 Treated): 0
20% Responders - PCSS: Number of Responders (Day 21): 9
20% Responders - PCSS: Responder % (Day 21): 69%
30% Responders - PCSS: Number of Responders (Day 21): 8
30% Responders - PCSS: Responder % (Day 21): 62%
PCSS symptom balance_problems (Day 44, OXE-103 Treated): 12
PCSS symptom difficulty_concentrating (Day 44, OXE-103 Treated): 16
PCSS symptom difficulty_remembering (Day 44, OXE-103 Treated): 21
PCSS symptom dizziness (Day 44, OXE-103 Treated): 9
PCSS symptom drowsiness (Day 44, OXE-103 Treated): 16
PCSS symptom fatigue (Day 44, OXE-103 Treated): 17
PCSS symptom feeling_in_a_fog (Day 44, OXE-103 Treated): 16
PCSS symptom feeling_more_emotional (Day 44, OXE-103 Treated): 7
PCSS symptom feeling_slowed_down (Day 44, OXE-103 Treated): 18
PCSS symptom headache (Day 44, OXE-103 Treated): 15
PCSS symptom irritability (Day 44, OXE-103 Treated): 10
PCSS symptom nausea (Day 44, OXE-103 Treated): 7
PCSS symptom neck_pain (Day 44, OXE-103 Treated): 14
PCSS symptom nervous_anxious (Day 44, OXE-103 Treated): 11
PCSS symptom numbness_or_tingling (Day 44, OXE-103 Treated): 6
PCSS symptom sadness (Day 44, OXE-103 Treated): 8
PCSS symptom sensitivity_to_light (Day 44, OXE-103 Treated): 9
PCSS symptom sensitivity_to_noise (Day 44, OXE-103 Treated): 13
PCSS symptom sleeping_less_than_usual (Day 44, OXE-103 Treated): 11
PCSS symptom sleeping_more_than_usual (Day 44, OXE-103 Treated): 8
PCSS symptom trouble_falling_asleep (Day 44, OXE-103 Treated): 16
PCSS symptom visual_problems (Day 44, OXE-103 Treated): 9
PCSS symptom vomiting (Day 44, OXE-103 Treated): 1
20% Responders - PCSS: Number of Responders (Day 44): 11
20% Responders - PCSS: Responder % (Day 44): 85%
30% Responders - PCSS: Number of Responders (Day 44): 9
30% Responders - PCSS: Responder % (Day 44): 69%
PCSS symptoms, change from Day 1 to Day 44 (FIG. 14) (aggregated across 11 OXE-103 treatment responders per symptom): reduction in all symptoms
balance_problems % change from day 1 to day 44 (reduction, OXE-103 Treated): 60%
difficulty_concentrating % change from day 1 to day 44 (reduction, OXE-103 Treated): 65%
difficulty_remembering % change from day 1 to day 44 (reduction, OXE-103 Treated): 56%
dizziness % change from day 1 to day 44 (reduction, OXE-103 Treated): 76%
drowsiness % change from day 1 to day 44 (reduction, OXE-103 Treated): 58%
fatigue % change from day 1 to day 44 (reduction, OXE-103 Treated): 60%
feeling_in_a_fog % change from day 1 to day 44 (reduction, OXE-103 Treated): 65%
feeling_more_emotional % change from day 1 to day 44 (reduction, OXE-103 Treated): 77%
feeling_slowed_down % change from day 1 to day 44 (reduction, OXE-103 Treated): 61%
headache % change from day 1 to day 44 (reduction, OXE-103 Treated): 59%
irritability % change from day 1 to day 44 (reduction, OXE-103 Treated): 71%
nausea % change from day 1 to day 44 (reduction, OXE-103 Treated): 61%
neck_pain % change from day 1 to day 44 (reduction, OXE-103 Treated): 63%
nervous_anxious % change from day 1 to day 44 (reduction, OXE-103 Treated): 69%
numbness_or_tingling % change from day 1 to day 44 (reduction, OXE-103 Treated): 63%
sadness % change from day 1 to day 44 (reduction, OXE-103 Treated): 71%
sensitivity_to_light % change from day 1 to day 44 (reduction, OXE-103 Treated): 74%
sensitivity_to_noise % change from day 1 to day 44 (reduction, OXE-103 Treated): 64%
sleeping_less_than_usual % change from day 1 to day 44 (reduction, OXE-103 Treated): 27%
sleeping_more_than_usual % change from day 1 to day 44 (reduction, OXE-103 Treated): 67%
trouble_falling_asleep % change from day 1 to day 44 (reduction, OXE-103 Treated): 57%
visual_problems % change from day 1 to day 44 (reduction, OXE-103 Treated): 70%
vomiting % change from day 1 to day 44 (reduction, OXE-103 Treated): 50%
